Test results published in US10368545B2, “Substituted 2-thioimidazolylcarboxamides as pesticides” (BAYER CROPSCIENCE AKTIENGESELLSCHAFT, priority 2015, dated 2019).
Several values for one entry are separate records, joined by “and”; a condition that tells them apart may be missing. Equal values may be shown once. Read-outs that look alike come from different tables or passages of the source.

Assays:
[1] = tested on: green peach aphid (Myzus persicae); assay: Contrasting example: Myzus persicae spray test (MYZUPE); assay type: in vivo; conditions: MYZUPE, 100 g ai/ha; for pest or weed control at 100 g/ha: Myzus persicae, 144 h, read-out: % efficacy
Description: Myzus persicae—Spray Test (MYZUPE)
(§1) Solvents: 78.0 parts by weight of acetone • • 1.5 parts by weight of dimethylformamide
(§2) Emulsifier: alkylaryl polyglycol ether
(§3) To produce a suitable active compound preparation, 1 part by weight of active compound is dissolved using the stated parts by weight of solvent and made up with water containing an emulsifier concentration of 1000 ppm until the desired concentration is attained. To produce further test concentrations, the preparation is diluted with emulsifier-containing water.
Discs of Chinese cabbage leaves (Brassica pekinensis), infested by all stages of the green peach aphid (Myzus persicae) are sprayed with an active compound preparation of the desired concentration.
After the desired period of time, the efficacy in % is determined. 100% means that all aphids were killed; 0% means that no aphids were killed.

[2] = tested on: larvae of the mustard beetle (Phaedon cochleariae); assay: Contrasting example: Phaedon cochleariae spray test (PHAECO); assay type: in vivo; conditions: 500 g ai/ha, 7 dat
Description: Phaedon cochleariae—Spray Test (PHAECO)
as §1, §2, §3
After the desired period of time, the efficacy in % is determined. 100% means that all beetle larvae were killed; 0% means that no beetle larvae were killed.

[3] = tested on: greenhouse red spider mite (Tetranychus urticae); assay: Contrasting example: Tetranychus urticae spray test, OP resistant (TETRUR); assay type: in vivo; conditions: 500 g ai/ha, 6 dat
Description: Tetranychus urticae—Spray Test; OP Resistant (TETRUR)
as §1, §2, §3
Discs of bean leaves (Phaseolus vulgaris), infested by all stages of the greenhouse red spider mite (Tetranychus urticae) are sprayed with an active compound preparation of the desired concentration.
After the desired period of time, the efficacy in % is determined. 100% means that all spider mites were killed; 0% means that no spider mites were killed.

[4] = tested on: green peach aphid (Myzus persicae); assay: Myzus persicae spray test (bell pepper plants); assay type: in vivo; conditions: after 6 days
Description: Myzus persicae—Spray Test
Solvent: 14 parts by weight of dimethylformamide
as §2
as §3, with “water. If the addition of ammonium salts and/or penetrants is required, these are each added in a concentration of 1000 ppm to the formulation solution.” for “water.”
Bell pepper plants (Capsicum annuum) severely infested with the green peach aphid (Myzus persicae) are treated by spraying with the active compound preparation in the desired concentration.
After 6 days, the kill in % is determined. 100% means that all of the aphids have been killed; 0% means that none of the aphids have been killed.

[5] = log P by HPLC on reversed-phase C18 columns (OECD Guideline 117); assay type: physicochemical; conditions: for logP[a]: method [a]; for logP[b]: method [b]; for chromatographic logP: reversed-phase C18 HPLC column
Summary of the method: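 Reversed-phase C18 HPLC per OECD 117, LC-MS with a linear 10% to 95% acetonitrile gradient. Acidic method at pH 2.7 with 0.1% formic acid; neutral method at pH 7.8 with 0.001 M ammonium hydrogencarbonate.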

[6] = tested on: greenhouse red spider mite (Tetranychus urticae); assay: Tetranychus urticae spray test, OP-resistant (bean leaf discs); assay type: in vivo; conditions: application rate 500 g/ha, after 6 days
Description: Tetranychus urticae—Spray Test, OP-Resistant
Solvent: 78.0 parts by weight of acetone • • 1.5 parts by weight of dimethylformamide
as §2, §3
Discs of bean leaves (Phaseolus vulgaris) infested with all stages of the greenhouse red spider mite (Tetranychus urticae) are sprayed with an active compound preparation of the desired concentration.
After 6 days, the efficacy in % is determined. 100% means that all the spider mites had been killed; 0% means that no spider mites had been killed.

[7] = tested on: green peach aphid (Myzus persicae); assay: Myzus persicae spray test (Chinese cabbage leaf discs); assay type: in vivo; conditions: after 5 or 6 days, Chinese cabbage leaf discs
Summary of the method: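 Leaf discs bearing all aphid stages are sprayed with compound dissolved in acetone/DMF and diluted with water containing 1000 ppm emulsifier. Efficacy in % is scored after 5 or 6 days: 100% means all aphids killed, 0% none killed.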

[8] = tested on: larvae of the mustard beetle (Phaedon cochleariae); assay: Phaedon cochleariae spray test (Chinese cabbage leaf discs); assay type: in vivo; conditions: application rate 500 g/ha, after 7 days
Description: Phaedon cochleariae—Spray Test
as §1, §2, §3
After 7 days, the efficacy in % is determined. 100% means that all beetle larvae were killed; 0% means that no beetle larvae were killed.

Compound | logP[a] [5] | logP[b] [5] | % efficacy ([1]; 6 dat) [%] | efficacy (aphids killed) ([7]; application rate 500 g/ha) [%] | % efficacy ([1]; 5 dat) [%] | further results
O=C(Nc1cccnc1)c1c[nH]cn1 [Example 13] |  |  |  |  |  | pest or weed control at 100 g/ha ([1]; 6 dat): 0%; % efficacy [2]: 0%; % efficacy [3]: 0%
Cc1nc(C(=O)Nc2cccnc2)c[nH]1 [Example 14] |  |  |  |  |  | pest or weed control at 100 g/ha ([1]; 6 dat): 0%; % efficacy [2]: 0%; % efficacy [3]: 0%
Cc1cc(C)nc(Sc2ncc(C(=O)Nc3cccnc3)n2C)n1 [I-A-4] | 1.55 | 1.97 | 70 |  |  | efficacy (kill of aphids) ([4]; application rate 20 ppm): 99%
CCCCCSc1ncc(C(=O)N(C)c2cccnc2)n1C [I-A-6] | 2.03 | 2.33 | 90 | 90 |  | efficacy (spider mites killed) [6]: 90%; % efficacy [3]: 90%
CN(C(=O)c1c(Cl)nc(Sc2ncccn2)n1C)c1cccnc1 [I-A-15] | 1.24 | 1.34 |  |  |  | efficacy (beetle larvae killed) [8]: 83%; % efficacy [2]: 83%
COCCCSc1ncc(C(=O)N(C)c2cccnc2)n1C [I-A-20] | 1.04 | 1.35 |  |  |  | efficacy (kill of aphids) ([4]; application rate 20 ppm): 99%
CON=C(C)CSc1ncc(C(=O)N(C)c2cccnc2)n1C [I-A-39] | 1.13 | 1.37 and 1.45 |  | 90 |  | % efficacy [3]: 70%
CCN(C(=O)c1cnc(SC)n1C)c1cccnc1 [I-A-44] | 0.80 | 1.30 |  |  |  | efficacy (kill of aphids) ([4]; application rate 20 ppm): 100%
CN(C(=O)c1cnc(Sc2ccc(Cl)cc2)n1C)c1cccnc1 [I-A-57] | 2.02 | 2.14 |  |  |  | efficacy (kill of aphids) ([4]; application rate 20 ppm): 99%
CN(C(=O)c1cnc(Sc2cccc(Cl)c2)n1C)c1cccnc1 [I-A-66] | 1.97 | 2.11 |  |  |  | efficacy (kill of aphids) ([4]; application rate 100 ppm): 99%
CN(C(=O)c1cnc(S(=O)(=O)c2cc(Cl)cc(Cl)c2)n1C)c1cccnc1 [I-A-78] | 2.37 | 2.53 | 90 |  |  | efficacy (spider mites killed) [6]: 90%; % efficacy [3]: 90%; efficacy (aphids killed) ([7]; application rate 100 g/ha): 90%
CN(C(=O)c1cnc([S+]([O-])c2ccc(Cl)c(C(F)(F)F)c2)n1C)c1cccnc1 (stereo not drawn) [I-A-79] | 2.16 | 2.29 |  | 90 |  | efficacy (beetle larvae killed) [8]: 100%; % efficacy [2]: 100%
CN(C(=O)c1cnc(S(=O)(=O)c2ccc(Cl)c(C(F)(F)F)c2)n1C)c1cccnc1 [I-A-80] | 2.56 | 2.72 |  |  |  | efficacy (beetle larvae killed) [8]: 100%; % efficacy [2]: 100%
CN(C(=O)c1cnc([S+]([O-])c2ccc([N+](=O)[O-])cc2)n1C)c1cccnc1 (stereo not drawn) [I-A-89] | 1.20 | 1.38 | 70 |  |  | efficacy (kill of aphids) ([4]; application rate 20 ppm): 99%
COc1ccc([S+]([O-])c2ncc(C(=O)N(C)c3cccnc3)n2C)cc1 (stereo not drawn) [I-A-93] | 1.12 | 1.28 | 70 |  |  | efficacy (kill of aphids) ([4]; application rate 20 ppm): 95%
CN(C(=O)c1cnc(S(=O)(=O)c2ncccn2)n1C)c1cccnc1 [I-A-99] | 0.66 | 0.87 | 70 |  |  | efficacy (kill of aphids) ([4]; application rate 20 ppm): 100%
CN(C(=O)c1cnc(Sc2ncc(C(F)(F)F)cn2)n1C)c1cccnc1 [I-A-105] | 1.64 | 1.73 | 100 | 100 |  | efficacy (spider mites killed) [6]: 90%; % efficacy [3]: 90%
CN(C(=O)c1cnc(Sc2ncc(F)cn2)n1C)c1cccnc1 [I-A-107] | 1.04 | 1.20 | 90 | 90 |  | % efficacy [3]: 70%
CN(C(=O)c1cnc(Sc2ncccc2C(F)(F)F)n1C)c1cccnc1 [I-A-110] | 1.77 | 1.93 | 100 | 100 |  | % efficacy [3]: 70%
CN(C(=O)c1cnc(SCc2c(Cl)cccc2Cl)n1C)c1cccnc1 [I-A-125] | 2.09 | 2.28 | 70 | 90 |  | % efficacy [3]: 70%
CN(C(=O)c1cn(C)c(Sc2ncccn2)n1)c1cccnc1 [I-B-1] |  |  |  |  |  | pest or weed control at 100 g/ha ([1]; 6 dat): 90%; chromatographic logP ([5]; pH 2.7, acidic range, pH 2.7, 0.1% aqueous formic acid / acetonitrile, read-out: log P[a]): 0.42; chromatographic logP ([5]; pH 7.8, neutral range, pH 7.8, 0.001 molar aqueous ammonium hydrogencarbonate / acetonitrile, read-out: log P[n]): 0.83; pest or weed control at 500 g/ha ([7]; Myzus persicae, foliar, application rate 500 g/ha, read-out: efficacy (aphids killed)): 100%

More lines, main results first:

logP[a] [5] | logP[b] [5] | Compound | % efficacy ([1]; 6 dat) [%] | efficacy (aphids killed) ([7]; application rate 500 g/ha) [%] | % efficacy ([1]; 5 dat) [%] | further results
2.47 | 2.54 | CN(C(=O)c1cnc(SCc2c(Cl)cccc2C(F)(F)F)n1C)c1cccnc1 [I-A-126] | 70 | 100 |  | 
1.41 | 1.68 | COc1cc(OC)nc(CSc2ncc(C(=O)N(C)c3cccnc3)n2C)n1 [I-A-128] | 90 | 90 |  | 
1.18 |  | CN(C(=O)c1cnc([S+]([O-])Cc2ccccc2)n1C)c1cccnc1 (stereo not drawn) [I-A-130] |  | 90 | 90 | 
1.27 | 1.56 | CN(C(=O)c1cnc(Sc2nc3ccccc3n2C)n1C)c1cccnc1 [I-A-134] |  | 100 | 100 | 
0.62 | 0.89 | Cc1nnc(Sc2ncc(C(=O)N(C)c3cccnc3)n2C)o1 [I-A-135] |  | 100 | 90 | 
1.41 | 1.46 | CCn1c(Sc2ncc(C(=O)N(C)c3cccnc3)n2C)nnc1C(F)(F)F [I-A-137] |  | 90 | 90 | 
1.12 | 1.26 | CN(C(=O)c1cnc(Sc2nnc(C(F)(F)F)n2C)n1C)c1cccnc1 [I-A-138] |  | 100 | 90 | 
0.87 | 1.00 | CN(C(=O)c1cnc(Sc2nnc(C(F)F)n2C)n1C)c1cccnc1 [I-A-139] |  | 100 | 90 | 
1.92 | 1.96 | CN(C(=O)c1cnc(Sc2nnc(-c3ccccc3)s2)n1C)c1cccnc1 [I-A-140] |  | 100 | 70 | 
1.39 | 1.84 | CN(C(=O)c1cnc(Sc2ncc(-c3ccccc3)n2C)n1C)c1cccnc1 [I-A-141] |  | 100 | 70 | 
1.31 | 1.47 | Cc1nc(Sc2ncc(C(=O)N(C)c3cccnc3)n2C)oc1C [I-A-142] |  | 90 | 90 | 
 | 0.86 | CN(C(=O)c1cnc(Sc2nccn2C)n1C)c1cccnc1 [I-A-144] |  | 100 | 90 | 
1.11 | 1.27 | CCn1c(C(=O)N(C)c2cccnc2)cnc1Sc1ncccn1 [I-A-146] |  |  | 90 | efficacy (aphids killed) ([7]; application rate 100 g/ha): 90%
